Assay [1] deals with T1, NAD-dependent protein deacetylase sirtuin-1 (Homo sapiens, UniProt Q96EB6).
T1 sequence (Q96EB6 whole entry): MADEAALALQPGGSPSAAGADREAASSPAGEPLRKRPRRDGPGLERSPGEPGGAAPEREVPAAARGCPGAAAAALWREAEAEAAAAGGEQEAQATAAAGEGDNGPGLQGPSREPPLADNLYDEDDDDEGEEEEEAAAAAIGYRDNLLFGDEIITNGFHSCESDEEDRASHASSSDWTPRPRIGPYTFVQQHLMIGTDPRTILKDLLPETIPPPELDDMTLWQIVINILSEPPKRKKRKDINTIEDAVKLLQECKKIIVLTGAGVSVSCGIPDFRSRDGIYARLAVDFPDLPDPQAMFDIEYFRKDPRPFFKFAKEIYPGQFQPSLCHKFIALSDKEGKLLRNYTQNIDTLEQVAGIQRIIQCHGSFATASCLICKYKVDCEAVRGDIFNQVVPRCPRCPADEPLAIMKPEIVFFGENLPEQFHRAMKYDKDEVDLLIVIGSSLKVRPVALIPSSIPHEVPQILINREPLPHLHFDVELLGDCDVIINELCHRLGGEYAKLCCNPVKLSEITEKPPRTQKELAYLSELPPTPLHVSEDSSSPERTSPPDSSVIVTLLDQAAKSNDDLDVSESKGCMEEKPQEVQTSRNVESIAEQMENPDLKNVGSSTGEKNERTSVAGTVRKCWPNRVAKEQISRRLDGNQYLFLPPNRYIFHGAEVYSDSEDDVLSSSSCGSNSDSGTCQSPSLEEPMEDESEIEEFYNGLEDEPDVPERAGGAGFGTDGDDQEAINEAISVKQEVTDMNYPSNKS
Briefly: Inhibition of recombinant human N-terminal His-tagged SIRT1 (1 to 747 end residues) expressed in Escherichia coli using Ac-RHK-K(Ac)-AMC as substrate after 30 mins in presence of NAD+ by fluorescence assay.

Another assay addresses Histone deacetylase 1 (Homo sapiens, UniProt Q13547). Briefly: Inhibition of full length recombinant human C-terminal FLAG/His-tagged HDAC1 expressed in baculovirus infected sf21 cells using RHK-K(Ac)-AMC as substrate after 60 mins by fluorescence assay.
Assay [2] has as its target T2, Polyamine deacetylase HDAC10 (Homo sapiens, UniProt Q969S8).
T2 sequence (Q969S8 whole entry): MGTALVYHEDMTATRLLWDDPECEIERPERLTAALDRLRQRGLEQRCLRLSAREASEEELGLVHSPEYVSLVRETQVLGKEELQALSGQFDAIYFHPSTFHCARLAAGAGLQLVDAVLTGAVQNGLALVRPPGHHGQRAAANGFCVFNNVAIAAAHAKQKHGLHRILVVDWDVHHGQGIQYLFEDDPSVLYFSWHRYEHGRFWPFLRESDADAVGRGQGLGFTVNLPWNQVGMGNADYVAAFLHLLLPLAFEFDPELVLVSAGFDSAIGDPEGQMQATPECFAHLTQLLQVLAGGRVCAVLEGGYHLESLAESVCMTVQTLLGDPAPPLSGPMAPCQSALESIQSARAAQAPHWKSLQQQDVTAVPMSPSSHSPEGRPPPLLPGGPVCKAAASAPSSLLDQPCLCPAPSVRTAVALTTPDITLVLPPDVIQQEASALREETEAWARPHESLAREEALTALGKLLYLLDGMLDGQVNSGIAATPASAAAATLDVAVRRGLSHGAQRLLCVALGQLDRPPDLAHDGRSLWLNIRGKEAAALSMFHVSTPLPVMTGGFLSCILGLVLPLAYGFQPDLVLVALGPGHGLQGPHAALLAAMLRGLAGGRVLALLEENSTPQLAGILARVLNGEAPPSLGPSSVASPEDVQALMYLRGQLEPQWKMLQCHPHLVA
As to the kind of experiment: Inhibition of human HDAC10 using RHKKAc as substrate.

Assay [3] concerns the target Histone deacetylase 3/Nuclear receptor corepressor 2 (HDAC3/NCoR2) (Homo sapiens, UniProt O15379). Briefly: Inhibition of full length recombinant human C-terminal His-tagged HDAC3/N-terminal GST-tagged NCOR2 (395 to 489 residues) expressed in insect cells using RHK-K(Ac)-AMC as substrate after 60 mins by fluorescence assay.
Assay [4] addresses T3, Protein deacetylase HDAC6 (Homo sapiens, UniProt Q9UBN7).
T3 sequence (Q9UBN7 whole entry): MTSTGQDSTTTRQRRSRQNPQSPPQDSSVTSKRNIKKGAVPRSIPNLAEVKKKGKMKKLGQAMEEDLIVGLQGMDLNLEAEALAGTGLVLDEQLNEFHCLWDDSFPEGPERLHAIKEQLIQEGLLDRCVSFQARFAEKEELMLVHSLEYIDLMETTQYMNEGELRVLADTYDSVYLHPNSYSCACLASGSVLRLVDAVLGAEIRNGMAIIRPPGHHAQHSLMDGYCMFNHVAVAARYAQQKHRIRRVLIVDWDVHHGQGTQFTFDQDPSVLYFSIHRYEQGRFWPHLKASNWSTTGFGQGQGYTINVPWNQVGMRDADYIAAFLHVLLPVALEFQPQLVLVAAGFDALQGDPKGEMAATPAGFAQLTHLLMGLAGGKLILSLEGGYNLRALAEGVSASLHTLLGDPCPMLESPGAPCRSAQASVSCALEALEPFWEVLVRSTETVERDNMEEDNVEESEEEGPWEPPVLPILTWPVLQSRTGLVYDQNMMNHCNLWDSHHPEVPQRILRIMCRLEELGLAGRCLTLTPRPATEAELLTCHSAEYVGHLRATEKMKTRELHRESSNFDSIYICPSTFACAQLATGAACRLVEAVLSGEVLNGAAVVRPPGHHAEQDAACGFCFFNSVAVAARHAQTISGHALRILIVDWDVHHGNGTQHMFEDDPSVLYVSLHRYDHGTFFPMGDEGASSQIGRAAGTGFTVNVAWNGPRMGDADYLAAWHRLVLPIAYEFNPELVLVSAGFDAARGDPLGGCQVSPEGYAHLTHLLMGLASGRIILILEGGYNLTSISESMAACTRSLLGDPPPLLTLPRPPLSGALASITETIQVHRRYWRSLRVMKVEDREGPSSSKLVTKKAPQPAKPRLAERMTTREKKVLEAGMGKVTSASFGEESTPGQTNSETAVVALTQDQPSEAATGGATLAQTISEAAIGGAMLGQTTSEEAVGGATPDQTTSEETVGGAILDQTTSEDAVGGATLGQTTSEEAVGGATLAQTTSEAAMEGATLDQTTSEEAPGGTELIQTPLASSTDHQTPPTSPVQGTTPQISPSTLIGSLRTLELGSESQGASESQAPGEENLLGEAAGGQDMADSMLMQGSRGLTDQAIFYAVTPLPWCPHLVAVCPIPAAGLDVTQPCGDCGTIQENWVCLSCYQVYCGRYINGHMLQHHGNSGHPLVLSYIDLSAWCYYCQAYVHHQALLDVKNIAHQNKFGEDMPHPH
As to the kind of experiment: Inhibition of full length recombinant human N-terminal GST-tagged HDAC6 expressed in baculovirus infected insect cells using RHK-K(Ac)-AMC as substrate after 90 mins by fluorescence assay.

A value given as a limit tells only on which side of the number the result lay.

Histone deacetylase 1, sequence (Q13547 whole entry): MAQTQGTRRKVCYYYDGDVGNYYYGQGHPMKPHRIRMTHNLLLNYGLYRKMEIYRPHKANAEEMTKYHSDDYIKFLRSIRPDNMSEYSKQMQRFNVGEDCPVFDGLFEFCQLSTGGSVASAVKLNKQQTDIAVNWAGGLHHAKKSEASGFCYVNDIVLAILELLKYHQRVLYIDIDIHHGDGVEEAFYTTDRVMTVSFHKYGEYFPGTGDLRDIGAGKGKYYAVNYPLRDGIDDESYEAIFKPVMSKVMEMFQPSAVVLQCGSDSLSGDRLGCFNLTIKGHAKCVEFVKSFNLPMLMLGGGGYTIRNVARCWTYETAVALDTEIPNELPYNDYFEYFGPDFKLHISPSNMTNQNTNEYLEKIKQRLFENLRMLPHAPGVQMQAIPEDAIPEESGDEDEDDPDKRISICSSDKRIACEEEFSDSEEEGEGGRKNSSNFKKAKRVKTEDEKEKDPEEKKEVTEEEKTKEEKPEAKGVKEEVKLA
Histone deacetylase 3/Nuclear receptor corepressor 2 (HDAC3/NCoR2), sequence (O15379 whole entry, the tested form may be a part): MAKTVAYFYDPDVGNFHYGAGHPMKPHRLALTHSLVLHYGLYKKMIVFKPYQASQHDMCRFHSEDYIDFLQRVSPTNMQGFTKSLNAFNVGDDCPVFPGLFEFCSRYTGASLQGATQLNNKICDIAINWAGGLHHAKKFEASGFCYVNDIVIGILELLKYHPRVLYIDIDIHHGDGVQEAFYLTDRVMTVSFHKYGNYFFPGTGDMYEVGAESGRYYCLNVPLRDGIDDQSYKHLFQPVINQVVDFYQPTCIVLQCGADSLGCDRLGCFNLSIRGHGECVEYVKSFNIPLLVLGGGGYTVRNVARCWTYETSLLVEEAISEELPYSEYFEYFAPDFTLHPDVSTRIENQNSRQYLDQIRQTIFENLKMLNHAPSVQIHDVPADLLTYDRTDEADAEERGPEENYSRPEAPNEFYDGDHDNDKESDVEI
Histone deacetylase 3/Nuclear receptor corepressor 2 (HDAC3/NCoR2), sequence (Q9Y618 whole entry, further chain, the tested form may be a part): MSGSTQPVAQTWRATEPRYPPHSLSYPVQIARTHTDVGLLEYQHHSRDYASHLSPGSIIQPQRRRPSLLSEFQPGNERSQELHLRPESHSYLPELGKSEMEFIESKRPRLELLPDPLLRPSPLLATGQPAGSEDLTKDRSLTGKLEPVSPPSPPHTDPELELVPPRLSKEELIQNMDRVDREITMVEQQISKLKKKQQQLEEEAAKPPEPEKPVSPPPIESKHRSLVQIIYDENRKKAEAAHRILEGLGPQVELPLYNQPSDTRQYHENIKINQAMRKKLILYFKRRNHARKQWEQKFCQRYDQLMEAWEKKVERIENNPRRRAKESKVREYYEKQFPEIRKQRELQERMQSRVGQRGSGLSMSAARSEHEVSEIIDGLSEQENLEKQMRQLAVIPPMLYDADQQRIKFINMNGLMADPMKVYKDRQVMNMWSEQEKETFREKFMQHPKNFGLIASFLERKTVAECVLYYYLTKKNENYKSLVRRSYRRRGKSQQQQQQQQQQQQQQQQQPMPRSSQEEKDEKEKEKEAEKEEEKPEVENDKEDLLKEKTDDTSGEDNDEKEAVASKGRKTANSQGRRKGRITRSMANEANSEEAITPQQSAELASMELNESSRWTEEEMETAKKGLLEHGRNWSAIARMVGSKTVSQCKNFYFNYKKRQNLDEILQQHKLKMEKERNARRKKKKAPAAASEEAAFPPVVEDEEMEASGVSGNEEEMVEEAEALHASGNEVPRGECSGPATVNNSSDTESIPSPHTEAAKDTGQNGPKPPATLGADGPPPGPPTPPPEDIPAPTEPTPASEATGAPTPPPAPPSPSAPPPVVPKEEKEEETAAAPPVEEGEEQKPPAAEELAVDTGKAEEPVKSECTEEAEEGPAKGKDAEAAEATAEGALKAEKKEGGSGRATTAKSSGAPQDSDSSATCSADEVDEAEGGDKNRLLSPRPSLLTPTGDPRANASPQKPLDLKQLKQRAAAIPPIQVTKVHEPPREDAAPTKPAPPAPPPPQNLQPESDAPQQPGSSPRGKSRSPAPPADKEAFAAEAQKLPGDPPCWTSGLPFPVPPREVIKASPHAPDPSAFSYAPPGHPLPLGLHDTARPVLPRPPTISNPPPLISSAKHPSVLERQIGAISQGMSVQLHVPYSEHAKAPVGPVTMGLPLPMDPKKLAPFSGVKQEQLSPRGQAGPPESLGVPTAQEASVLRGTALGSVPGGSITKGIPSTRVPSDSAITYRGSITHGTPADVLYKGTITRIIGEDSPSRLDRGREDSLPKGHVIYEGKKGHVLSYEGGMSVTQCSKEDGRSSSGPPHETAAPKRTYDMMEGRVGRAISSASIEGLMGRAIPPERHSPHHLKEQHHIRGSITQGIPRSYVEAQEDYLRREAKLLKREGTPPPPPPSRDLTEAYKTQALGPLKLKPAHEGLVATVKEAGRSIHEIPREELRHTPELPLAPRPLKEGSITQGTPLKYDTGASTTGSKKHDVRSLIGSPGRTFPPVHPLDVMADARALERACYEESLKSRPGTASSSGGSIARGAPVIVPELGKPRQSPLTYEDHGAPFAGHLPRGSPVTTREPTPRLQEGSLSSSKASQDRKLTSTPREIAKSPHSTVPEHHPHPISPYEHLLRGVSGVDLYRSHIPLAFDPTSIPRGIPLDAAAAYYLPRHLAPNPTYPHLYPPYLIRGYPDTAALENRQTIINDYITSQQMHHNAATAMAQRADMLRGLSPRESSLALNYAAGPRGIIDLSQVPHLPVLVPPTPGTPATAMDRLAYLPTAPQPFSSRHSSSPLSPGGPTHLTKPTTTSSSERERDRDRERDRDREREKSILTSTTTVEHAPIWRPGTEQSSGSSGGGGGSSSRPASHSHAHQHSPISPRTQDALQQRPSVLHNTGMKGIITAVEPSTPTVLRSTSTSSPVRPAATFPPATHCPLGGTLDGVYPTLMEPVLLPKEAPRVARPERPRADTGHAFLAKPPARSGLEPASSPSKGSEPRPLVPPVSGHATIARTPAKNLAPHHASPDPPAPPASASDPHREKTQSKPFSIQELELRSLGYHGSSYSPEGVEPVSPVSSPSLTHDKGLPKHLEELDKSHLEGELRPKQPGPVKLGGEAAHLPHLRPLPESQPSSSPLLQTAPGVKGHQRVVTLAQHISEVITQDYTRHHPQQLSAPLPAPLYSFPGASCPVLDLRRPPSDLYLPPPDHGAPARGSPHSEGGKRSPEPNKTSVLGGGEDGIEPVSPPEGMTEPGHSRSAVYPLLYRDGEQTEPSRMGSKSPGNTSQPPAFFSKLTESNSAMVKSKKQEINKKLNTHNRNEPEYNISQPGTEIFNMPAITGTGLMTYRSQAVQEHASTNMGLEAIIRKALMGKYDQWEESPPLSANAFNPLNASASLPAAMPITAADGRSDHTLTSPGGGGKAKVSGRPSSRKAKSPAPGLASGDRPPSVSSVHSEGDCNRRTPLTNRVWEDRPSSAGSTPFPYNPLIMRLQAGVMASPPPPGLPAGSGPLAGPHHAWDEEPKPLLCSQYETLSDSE

For `O=C(NO)c1ccc(CNc2cccc3ncccc23)cc1`, the IC50 (in general, the concentration that inhibits the measured activity by half) is over 20 µM in assay [1]; 7.05 µM at Histone deacetylase 1; 1.26 µM in assay [2]; 5.48 µM in assay [3]; 0.000795 µM in assay [4].
For `O=C(NO)c1ccc(CNc2cccc3cccnc23)cc1`, in that order: over 20 µM, 9.55 µM, 9.79 µM, 7.75 µM and 0.000291 µM.
